In brackets after ≈: the same amount, converted by molar mass.
Tests used:
[1] = target: T1, Prostaglandin G/H synthase 2 (Homo sapiens, UniProt P35354); test: Inhibition of COX-2 (unknown origin) by colorimetric method
T1 sequence (P35354 whole entry): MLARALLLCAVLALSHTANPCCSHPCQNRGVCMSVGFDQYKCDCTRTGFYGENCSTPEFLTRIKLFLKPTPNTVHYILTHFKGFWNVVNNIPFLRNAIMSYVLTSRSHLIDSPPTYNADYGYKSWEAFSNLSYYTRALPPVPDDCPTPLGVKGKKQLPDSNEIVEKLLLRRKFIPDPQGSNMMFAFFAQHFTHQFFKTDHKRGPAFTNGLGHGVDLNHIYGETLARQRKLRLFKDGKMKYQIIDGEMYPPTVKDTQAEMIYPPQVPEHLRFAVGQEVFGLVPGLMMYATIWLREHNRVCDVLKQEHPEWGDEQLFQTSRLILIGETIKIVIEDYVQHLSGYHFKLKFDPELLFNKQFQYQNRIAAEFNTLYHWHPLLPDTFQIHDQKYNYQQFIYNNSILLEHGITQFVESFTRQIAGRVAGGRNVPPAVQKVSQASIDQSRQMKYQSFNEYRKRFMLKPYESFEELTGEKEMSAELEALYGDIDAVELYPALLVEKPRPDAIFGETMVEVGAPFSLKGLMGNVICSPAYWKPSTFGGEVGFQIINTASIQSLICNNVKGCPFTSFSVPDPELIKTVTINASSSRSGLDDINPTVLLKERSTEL

[2] = target: T2, Polyunsaturated fatty acid 5-lipoxygenase (Homo sapiens, UniProt P09917); test: Inhibition of human 5-LOX by colorimetric assay
T2 sequence (P09917 whole entry): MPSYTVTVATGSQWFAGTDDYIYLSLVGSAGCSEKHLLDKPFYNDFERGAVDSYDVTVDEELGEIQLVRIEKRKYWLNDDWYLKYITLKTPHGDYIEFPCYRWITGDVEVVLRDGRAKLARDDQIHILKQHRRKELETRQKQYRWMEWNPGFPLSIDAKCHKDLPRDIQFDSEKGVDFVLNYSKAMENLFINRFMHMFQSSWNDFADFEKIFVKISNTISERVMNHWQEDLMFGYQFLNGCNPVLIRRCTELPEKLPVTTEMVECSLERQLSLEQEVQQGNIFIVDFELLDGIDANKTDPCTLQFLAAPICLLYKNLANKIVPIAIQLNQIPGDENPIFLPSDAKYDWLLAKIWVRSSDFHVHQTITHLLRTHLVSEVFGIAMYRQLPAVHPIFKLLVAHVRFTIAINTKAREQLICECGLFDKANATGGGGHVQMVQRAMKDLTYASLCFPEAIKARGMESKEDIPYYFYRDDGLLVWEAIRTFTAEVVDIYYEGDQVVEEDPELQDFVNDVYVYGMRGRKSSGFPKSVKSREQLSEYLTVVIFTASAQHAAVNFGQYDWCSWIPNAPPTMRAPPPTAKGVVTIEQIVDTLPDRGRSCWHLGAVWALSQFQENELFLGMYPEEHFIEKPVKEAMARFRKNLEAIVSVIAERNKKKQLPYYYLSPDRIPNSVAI

[3] = target: T1, Prostaglandin G/H synthase 2; test: Inhibition of COX-2 (unknown origin) by enzyme immune assay
MCF7 = test: Anticancer activity against human MCF7 cells assessed as cell growth inhibition incubated for 3 hrs by Sulforhodamine B assay; format: functional, cell-based; conditions: MCF7, 3 h
[4] = target: Prostaglandin G/H synthase 1 (Homo sapiens, UniProt P23219); test: Inhibition of COX-1 (unknown origin) by enzyme immune assay
Sequence of Prostaglandin G/H synthase 1 (P23219 whole entry): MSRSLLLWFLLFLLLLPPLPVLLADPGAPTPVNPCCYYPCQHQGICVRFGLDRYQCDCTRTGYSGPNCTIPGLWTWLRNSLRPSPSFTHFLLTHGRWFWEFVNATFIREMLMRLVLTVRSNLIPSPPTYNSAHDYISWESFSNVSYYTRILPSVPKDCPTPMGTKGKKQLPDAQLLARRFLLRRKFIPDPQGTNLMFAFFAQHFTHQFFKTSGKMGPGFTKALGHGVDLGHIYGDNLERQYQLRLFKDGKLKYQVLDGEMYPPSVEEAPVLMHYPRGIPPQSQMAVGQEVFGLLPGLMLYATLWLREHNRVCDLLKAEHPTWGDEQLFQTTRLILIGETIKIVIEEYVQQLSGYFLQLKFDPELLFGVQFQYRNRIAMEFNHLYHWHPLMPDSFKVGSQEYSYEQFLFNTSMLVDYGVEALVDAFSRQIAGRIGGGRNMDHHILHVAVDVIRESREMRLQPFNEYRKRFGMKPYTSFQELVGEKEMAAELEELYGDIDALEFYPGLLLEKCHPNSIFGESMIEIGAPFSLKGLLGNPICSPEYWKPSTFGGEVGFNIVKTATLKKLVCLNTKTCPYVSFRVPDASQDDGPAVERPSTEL

DLD-1 = test: Anticancer activity against human DLD-1 cells assessed as cell growth inhibition incubated for 3 hrs by Sulforhodamine B assay; format: functional, cell-based; conditions: DLD-1, 3 h

IC50 [1] [nM] | IC50 [2] [nM] | IC50 [3] [µM] | IC50 (MCF7) [µg/mL] | IC50 [4] [µM] | IC50 (DLD-1) [µg/mL] | SMILES
250 | 20 |  |  |  |  | O=C1/C(=C/c2ccc(Cl)cc2)N=C(c2ccccc2)N1c1ccc(-c2nc3ccccc3o2)cc1
 |  | 399 | 82 (≈ 372 µM) | 395 | 52.5 (≈ 238 µM) | C=C1CC[C@@H]2[C@H](CC2(C)C)C(=C)CC[C@H]1O

Source: ChEMBL document CHEMBL5241097, “Synthetically-tailored and nature-derived dual COX-2/5-LOX inhibitors: Structural aspects and SAR” (Eur J Med Chem, 2021)
